Data: patent US12336981B2, “Compounds and compositions for the inhibition of NAMPT” (Valo Health, Inc., priority 2010, dated 2025)
Like-named read-outs stand apart in the source and are kept apart here.

Legend:
NAMPT = target: T1, NAMPT (Homo sapiens, UniProt P43490); assay: Biochemical inhibition assay: NAMPT enzymatic reaction, NMN quantified by mass spectrometry; settings: read-out: Biochem IC50
T1 construct: His tag; host or cells: E. coli
How it was run: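 Inhibition of E. coli-expressed His-tagged human NAMPT, measured as NMN formation by mass spectrometry after a 30 min room-temperature reaction containing 1 μM NAM, 100 μM PRPP and 2.5 mM ATP.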

A2780 cells = assay: In-vitro cell proliferation assay (SRB), A2780 cells; type: cell-based; settings: A2780 cells, 72 hours, read-out: A2780 IC50
How it was run: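 Viable cells measured by SRB staining after 6% TCA fixation, absorbance 570 nm. Media-only background subtracted; % inhibition derived at two compound concentrations.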

[1] = Homo sapiens, A2780, 72 h, SRB assay

T1 sequence (P43490 whole entry): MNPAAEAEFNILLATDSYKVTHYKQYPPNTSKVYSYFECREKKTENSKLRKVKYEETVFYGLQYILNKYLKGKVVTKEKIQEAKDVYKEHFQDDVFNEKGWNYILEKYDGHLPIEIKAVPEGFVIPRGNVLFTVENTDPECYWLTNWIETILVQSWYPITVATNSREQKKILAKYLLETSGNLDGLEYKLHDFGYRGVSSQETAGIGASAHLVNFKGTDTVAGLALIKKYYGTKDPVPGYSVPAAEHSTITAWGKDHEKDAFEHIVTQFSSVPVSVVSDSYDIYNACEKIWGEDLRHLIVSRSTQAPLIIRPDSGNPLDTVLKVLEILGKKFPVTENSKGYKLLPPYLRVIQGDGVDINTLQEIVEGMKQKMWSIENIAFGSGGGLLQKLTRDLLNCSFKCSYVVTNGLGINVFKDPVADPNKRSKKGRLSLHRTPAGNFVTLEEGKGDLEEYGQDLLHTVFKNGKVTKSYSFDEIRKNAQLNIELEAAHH

Structure (SMILES)	IC50 (NAMPT; NAMPT enzymatic assay)	IC50 (A2780 cells; Homo sapiens, A2780, 72 h, SRB)	IC50 (NAMPT; NAMPT enzymatic reaction)	IC50 (A2780 cells; [1])	IC50 (A2780 cells; SRB)
O=C(NCc1ccc(S(=O)(=O)c2cc(Cl)cc(C(F)(F)F)c2)cc1)c1cnc2[nH]ncc2c1 [N-[(4-{[3-chloro-5-(trifluoromethyl)benzene]sulfonyl}phenyl)methyl]-1H-pyrazolo[3,4-b]pyridine-5-carboxamide]	7.8 nM	2.73 nM	–	–	–
O=C(NCc1ccc(S(=O)(=O)c2cc(C(F)(F)F)ccn2)cc1)c1cc2ccncc2s1 [N-({4-[4-(trifluoromethyl)pyridine-2-sulfonyl]phenyl}methyl)thieno[2,3-c]pyridine-2-carboxamide]	3.6 nM	3 nM	–	–	–
O=C(NCc1ccc(S(=O)(=O)N2CCCCC2)cc1)c1cn2[nH]ccc2n1 [N-{[4-(piperidine-1-sulfonyl)phenyl]methyl}-1H-imidazo[1,2-b]pyrazole-5-carboxamide]	–	–	0.8 nM	11 nM	–
COc1ccc(F)cc1S(=O)(=O)c1ccc(CNC(=O)c2cc3ccncc3s2)cc1	–	0.8 nM	2 nM	–	–
O=C(NCc1ccc(S(=O)(=O)c2cccc(N3CCOCC3)c2)cc1)c1cc2ccncc2o1	5 nM	5.6 nM	–	–	–
N#Cc1ccccc1S(=O)(=O)c1ccc(CNC(=O)c2ccc3nccn3c2)cc1	–	61.3 nM	15.6 nM	–	–
CCN(C)c1ncc(S(=O)(=O)c2ccc(CNC(=O)c3cnc4nccn4c3)cc2)s1 [N-[(4-{2-[ethyl(methyl)amino]-1,3-thiazole-5-sulfonyl}phenyl)methyl]imidazo[1,2-a]pyrimidine-6-carboxamide]	1.8 nM	0.9 nM	–	–	–
CN(C)CCc1cccc(S(=O)(=O)c2ccc(CNC(=O)c3cnc4nccn4c3)cc2)c1	3.5 nM	100 to 1000 nM	–	–	–
O=C(NCc1ccc(NS(=O)(=O)c2ccccc2OC(F)(F)F)cc1)c1cc2cnccc2[nH]1 [N-[(4-{[2-(trifluoromethoxy)benzene]sulfonamido}phenyl)methyl]-1H-pyrrolo[3,2-c]pyridine-2-carboxamide]	–	–	3 nM	1 nM	–
COc1cc(C)c(S(=O)(=O)c2ccc(CNC(=O)c3cnc4nccn4c3)cc2)cc1C	–	13 nM	5.2 nM	–	–
Cc1cc(Cl)ccc1S(=O)(=O)c1ccc(CNC(=O)c2cnc3[nH]ncc3c2)cc1 [N-({4-[(4-chloro-2-methylbenzene)sulfonyl]phenyl}methyl)-1H-pyrazolo[3,4-b]pyridine-5-carboxamide]	–	58.7 nM	77.5 nM	–	–
CCOc1ccc(S(=O)(=O)c2ccc(CNC(=O)c3cc4ccncc4s3)cc2)cc1F	–	3.6 nM	8.9 nM	–	–
COc1ccc(S(=O)(=O)c2ccc(CNC(=O)c3cc4cnccc4[nH]3)cc2)c(Cl)c1	–	14.5 nM	9.3 nM	–	–
CCCOc1ccc(Cl)cc1S(=O)(=O)c1ccc(CNC(=O)c2cc3ccncc3s2)cc1	–	1.2 nM	5.7 nM	–	–
CN1CCN(c2ccc(S(=O)(=O)c3ccc(CNC(=O)c4cc5ccncc5s4)cc3)cc2)CC1	1 nM	0.3 nM	–	–	–
O=C(NCc1ccc(S(=O)(=O)c2ccc(F)c(OCC(F)(F)F)c2)cc1)c1cc2ccncc2o1	8.7 nM	25.5 nM	–	–	–
O=C(NCc1ccc(S(=O)(=O)c2csc(-c3cccc(F)c3)n2)cc1)c1cnc2nccn2c1 [N-({4-[2-(3-fluorophenyl)-1,3-thiazole-4-sulfonyl]phenyl}methyl)imidazo[1,2-a]pyrimidine-6-carboxamide]	1 nM	6.9 nM	–	–	–
O=C(NCc1ccc(S(=O)(=O)c2ccccc2)cc1)c1cc(-c2cccnc2)[nH]n1 [N-{[4-(benzenesulfonyl)phenyl]methyl}-5-(pyridin-3-yl)-1H-pyrazole-3-carboxamide]	–	–	23 nM	11800 nM	–

Structure (SMILES)	IC50 (NAMPT; NAMPT enzymatic assay)	IC50 (A2780 cells; Homo sapiens, A2780, 72 h, SRB)	IC50 (NAMPT; NAMPT enzymatic reaction)	IC50 (A2780 cells; [1])	IC50 (A2780 cells; SRB)
COc1ccc(S(=O)(=O)c2ccc(CNC(=O)c3cc4ccncc4o3)cc2)cc1F	–	6.8 nM	2.2 nM	–	–
CCOc1ccc(S(=O)(=O)c2ccc(CNC(=O)c3cnc4nccn4c3)cc2)c(C)c1 [N-({4-[(4-ethoxy-2-methylbenzene)sulfonyl]phenyl}methyl)imidazo[1,2-a]pyrimidine-6-carboxamide]	–	60.7 nM	11.7 nM	–	–
CC(C)COc1ccc(S(=O)(=O)c2ccc(CNC(=O)c3cnc4nccn4c3)cc2)cc1	5.5 nM	5.2 nM	–	–	–
CCCCOc1cccc(S(=O)(=O)c2ccc(CNC(=O)c3cc4cnccc4[nH]3)cc2)c1 [N-({4-[(3-butoxybenzene)sulfonyl]phenyl}methyl)-1H-pyrrolo[3,2-c]pyridine-2-carboxamide]	–	21.6 nM	11.5 nM	–	–
COc1ccccc1NS(=O)(=O)c1ccc(CNC(=O)c2cc3cnccc3[nH]2)cc1 [N-({4-[(2-methoxyphenyl)sulfamoyl]phenyl}methyl)-1H-pyrrolo[3,2-c]pyridine-2-carboxamide]	–	–	89 nM	2150 nM	–
O=C(NCc1ccc(S(=O)(=O)c2cccc(F)c2Cl)cc1)c1cnc2[nH]ncc2c1	–	100 to 1000 nM	73.6 nM	–	–
COc1ccc(S(=O)(=O)c2ccc(CNC(=O)c3cc4cnccc4[nH]3)cc2)c(C)c1 [N-({4-[(4-methoxy-2-methylbenzene)sulfonyl]phenyl}methyl)-1H-pyrrolo[3,2-c]pyridine-2-carboxamide]	–	–	24 nM	24 nM	–
CCOc1cc(Cl)ccc1S(=O)(=O)c1ccc(CNC(=O)c2cc3cnccc3[nH]2)cc1	–	0.4 nM	11.2 nM	–	–
O=C(NCc1ccc(S(=O)(=O)c2cnn(-c3cccc(Cl)c3)c2)cc1)c1cc2ccncc2o1 [N-({4-[1-(3-chlorophenyl)-1H-pyrazole-4-sulfonyl]phenyl}methyl)furo[2,3-c]pyridine-2-carboxamide]	11.6 nM	14 nM	–	–	–
Cc1ccc(S(=O)(=O)c2ccc(CNC(=O)c3cc4ccncc4s3)cc2)cn1 [N-{[4-(6-methylpyridine-3-sulfonyl)phenyl]methyl}thieno[2,3-c]pyridine-2-carboxamide]	22 nM	6.3 nM	–	–	–
O=C(NCc1ccc(S(=O)(=O)c2ccc(F)cc2F)cc1)c1ccc2nccn2c1 [N-({4-[(2,4-difluorobenzene)sulfonyl]phenyl}methyl)imidazo[1,2-a]pyridine-6-carboxamide]	–	28.1 nM	28.3 nM	–	–
CCCCOc1ccc(S(=O)(=O)c2ccc(CNC(=O)c3cnc4[nH]ncc4c3)cc2)cc1Cl	–	11.1 nM	4.5 nM	–	–
O=C(NCc1ccc(S(=O)(=O)c2ccc(OC(F)(F)F)cc2)cc1)c1cc2ccncc2o1	9.4 nM	–	–	–	27.7 nM
O=C(NCc1ccc(S(=O)(=O)c2cncc(F)c2)cc1)c1cc2cnccc2[nH]1 [N-{[4-(5-fluoropyridine-3-sulfonyl)phenyl]methyl}-1H-pyrrolo[3,2-c]pyridine-2-carboxamide]	71.3 nM	13.6 nM	–	–	–
O=C(NCc1ccc(S(=O)(=O)c2ccc3nc(C(F)(F)F)cn3c2)cc1)c1cc2ccncc2o1 [N-({4-[2-(trifluoromethyl)imidazo[1,2-a]pyridine-6-sulfonyl]phenyl}methyl)furo[2,3-c]pyridine-2-carboxamide]	21.2 nM	11.9 nM	–	–	–
O=C(NCc1ccc(S(=O)(=O)c2ccc(F)cc2C(F)(F)F)cc1)c1ccc2nccn2c1	4 nM	15 nM	–	–	–
O=C(NCc1ccc(S(=O)(=O)N2CCCCC2)cc1)c1cc2cnccc2o1 [N-{[4-(piperidine-1-sulfonyl)phenyl]methyl}furo[3,2-c]pyridine-2-carboxamide]	–	–	17 nM	286 nM	–
